Patent US11186603B2, “Heparan sulfate glycomimetic compounds and their pharmaceutical and cosmeceutical uses” (VICTORIA LINK LIMITED, priority 2017, dated 2021)

Legend:
[1] = tested on: ND41001 (AD) fibroblast cell line; experiment: NPC cholesterol activity: filipin staining, LSO ratio; format: cell-based, human; conditions: 48 hours
Excerpt: (§1) Fibroblast cell lines derived from Alzheimer and Niemann-Pick Type C (NPC) patients and healthy controls were obtained from the […] (Camden, N.J., USA). Cell line GM03123 was derived from a NPC patient with two heterozygous mutations in the NPC1 gene. Cell line GM09503 was used as a healthy control for the NPC cell line. Cell line ND41001 was derived from a patient carrying a Presenilin 1 mutation with familial (early onset) Alzheimer's disease (AD). Cell line ND38530 was used as a healthy control for the AD cell line. Further details of the cell lines are available at the Cornell Cell Repository website (https://catalog.coriell.org/).
(§2) Cell culture work was carried out in sterile conditions in an Email Air Handling Class II Biological Safety Cabinet (AES Environmental Pty LTD, Australia). All cell lines were cultured in DMEM (10313-021, Life Technologies New Zealand) supplemented with 10% fetal calf serum (Thermo Fisher Scientific New Zealand), 1× GlutaMAX™ Supplement (stabilised L-glutamine, Gibco Life Technologies New Zealand), 100 units/mL penicillin and 100 units/mL streptomycin (Life Technologies New Zealand). Cell lines were maintained in or 75 cm^2 flasks (Corning, Invitro Technologies New Zealand) in a humidified incubator (Sanyo Electric Co. Ltd, Japan) at 37° C. and 5% CO2. Experimental cultures were carried out in the same media omitting the antibiotics to avoid any potential interaction with the compound being tested.
(§3) For experiments, cells were seeded at a density of 1.25×10^3 cells/mL in black, 96 well plates (Cell-carrier, Perkin Elmer, Scimed New Zealand) in a volume of 100 μL media and grown for 24 hours before treating. The media was then replaced with fresh media supplemented with the required treatment. Cell lines GM03123 and ND41001 were either left untreated, or treated with either 10 μM or 100 μM of the heparan sulphate compound dissolved in sterile deionised water (dH20), 10 μM suberoylanilide hydroxamic acid (SAHA) dissolved in DMSO, or 0.1% DMSO. The healthy control cell lines GM09503 and ND38530 were left untreated or treated with U18666A dissolved in sterile dH20 at a final concentration of 1 μg/mL. U18666A causes cholesterol accumulation in the cell and is therefore a positive control for the filipin stain. Cells were then grown for 48 hours.
(§4) Before fixing, cells were washed three times with 1× phosphate buffered saline (PBS). From this point all treatments and washes were undertaken on a rotating table at 45 revs per minute. Cells were fixed with 1.5% paraformaldehyde (PFA) in 1×PBS (Thermo Fisher Scientific New Zealand) for 20 minutes. Cells were then washed with 1×PBS for four minutes. This was repeated twice. The cells were then stained for 2 hours with 50 μg/mL Filipin dye (Filipin complex from Streptomyces filipinensis, Sigma Aldrich, Australia) protected from the light. With minimal light exposure, the cells were washed with 1×PBS for four minutes and this was repeated twice. Cells were left in 1×PBS for confocal microscopy. The filipin stained cells were imaged using a Perkin Elmer Opera™ high-throughput spinning disk confocal microscope using 405 nm laser and 20× water immersion objective. Perkin Elmer Acapella™ software was used for image analysis. In NPC cells cholesterol accumulates in organelles with the characteristics of late endosomes or early lysosomes. These can be described as lysosome-like storage organelles (LSO). Analysis of free cholesterol levels in the cells was carried out using a method designed for high throughput confocal images described by Pipalia et al., Automated microscopy screening for compounds that partially revert cholesterol accumulation in Niemann-Pick C cells, J. Lipid Res., 2006, 47(2): 284-301. A low fluorescence threshold was chosen which identified the total area occupied by cells and another higher threshold was chosen to determine the areas of bright filipin staining of cholesterol within the cell. […]

[2] = tested on: GM03123 (NPC) fibroblast cell line; experiment: as above; format: cell-based, human; conditions: for LSO %: GM03123 (NPC), 48 hours
Excerpt: as §1, §2, §3, §4

[3] = 10 μM, LSO ratio treated/untreated x 100

Structure (SMILES): O=C(CCCCCCCNC(=O)CCOCC(COCCC(=O)NCCCCCCCC(=O)NCCOCCOCCOCCC(=O)NCCCCCCOC1OC(COS(=O)(=O)[O-])C(OC2OC(COS(=O)(=O)[O-])C(OS(=O)(=O)[O-])C(OS(=O)(=O)[O-])C2OS(=O)(=O)[O-])C(OS(=O)(=O)[O-])C1OS(=O)(=O)[O-])(COCCC(=O)NCCCCCCCC(=O)NCCOCCOCCOCCC(=O)NCCCCCCOC1OC(COS(=O)(=O)[O-])C(OC2OC(COS(=O)(=O)[O-])C(OS(=O)(=O)[O-])C(OS(=O)(=O)[O-])C2OS(=O)(=O)[O-])C(OS(=O)(=O)[O-])C1OS(=O)(=O)[O-])COCCC(=O)NCCCCCCCC(=O)NCCOCCOCCOCCC(=O)NCCCCCCOC1OC(COS(=O)(=O)[O-])C(OC2OC(COS(=O)(=O)[O-])C(OS(=O)(=O)[O-])C(OS(=O)(=O)[O-])C2OS(=O)(=O)[O-])C(OS(=O)(=O)[O-])C1OS(=O)(=O)[O-])NCCOCCOCCOCCC(=O)NCCCCCCOC1OC(COS(=O)(=O)[O-])C(OC2OC(COS(=O)(=O)[O-])C(OS(=O)(=O)[O-])C(OS(=O)(=O)[O-])C2OS(=O)(=O)[O-])C(OS(=O)(=O)[O-])C1OS(=O)(=O)[O-].[Na+].[Na+].[Na+].[Na+].[Na+].[Na+].[Na+].[Na+].[Na+].[Na+].[Na+].[Na+].[Na+].[Na+].[Na+].[Na+].[Na+].[Na+].[Na+].[Na+].[Na+].[Na+].[Na+].[Na+].[Na+].[Na+].[Na+].[Na+] (stereo not shown) [Compound 25a]
- LSO % ([1]; 10 μM): 60.1%
- LSO % ([1]; 100 μM): 67.9%
- LSO % [2, 3]: 76.1%
- LSO % ([2]; 100 μM): 64.2%
- effect on filipin (cholesterol) fluorescence (in words) ([2]; fibroblast cells derived from Niemann-Pick type C and Alzheimer's disease patients): positive effect on filipin (cholesterol) fluorescence

Structure (SMILES): O=C(CCCCCCC(=O)Nc1ccccc1)NO [SAHA, suberoylanilide hydroxamic acid, reference compound]
- LSO % ([1]; 10 μM): 42.4%
- LSO % [2, 3]: 43.0%
